The values that follow come from patent US20090023753A1, “1,3-Thiazole-5-Carboxamides Useful as Cancer Chemotherapeutic Agents” (Bayer HealthCare AG, priority 2005, published 2009).

In test [1] the test system is P-AKT/PKB in H209 small cell lung carcinoma cells. The experiment in a line: P-AKT/PKB Cytoblot Assay with H209 cells (SCF-stimulated). The format is cell-based. Particulars: Homo sapiens, NCI-H209, 1 hour compound incubation, SCF 25 ng/mL for 5 minutes, p-(S473) AKT. From the text:
The utility of the compounds of the present invention can be illustrated, for example, by their activity in the P-AKT/PKB Cytoblot Assay described below. The involvement of the P-AKT/PKB[PI3K/AKt] pathway as a target for cancer chemotherapy has been recognized in the art. For example, see F. Chang et al, Involvement of PI3K/Akt pathway in cell cycle progression, apoptosis, and neoplastic transformation: a target for cancer chemotherapy, Leukemia, 2003, 17: p. 590-603; K. A. West et al, Activation of the PI3K/Akt pathway and chemotherapeutic resistance, Drug Resistance Updates, 2002, 5: p. 234-248; and P. Sen et al, Involvement of the Akt/PKB signaling pathway with disease processes, Molecular and Cellular Biochemistry, 2003, 253: p. 241-246.
P-AKT/PKB Cytoblot Assay Protocol with H209 Cells
H209 small cell lung carcinoma cells in log phase were plated at 50,000 cells/well in 96-well poly-lysine coated, clear bottom/black-sided plates (Becton-Dickinson, USA Cat # 354640) in 100 Ill RPMI medium containing 0.1% (w/v) BSA, and incubated overnight at 37° C. in 5% CO2 incubator. The following day, compounds (10 mM stock solutions in DMSO) were added to the plates to generate final concentrations of 0.0, 0.01, 0.03, 0.1, 0.3, 1.0, 3.0 and 10 μM for IC50 determinations and incubated for 1 hour at 37° C. Cells were then left untreated or stimulated with Stem Cell Factor (SCF: Biosource Cat # PHC2116) at a final concentration of 25 ng/mL for 5 minutes at 37° C. in 5% CO2 incubator. The media was then removed using a vacuum manifold and the cells were washed once with Tris Buffered Saline (TBS). Cells were then fixed by adding 200 μl of cold 3.7% (v/v) formaldehyde in TBS to each well for 15 minutes at 4° C. After removal of the formaldehyde, the cells were treated with the addition of 50 μl of methanol (at −20° C.) to each well for 5 minutes. After removal of the methanol, 200 μl of 1% (w/v) BSA in TBS was added to each well to block non-specific antibody binding sites and the plate was incubated at room temperature for 30 minutes.
After removal of the blocking buffer, 50 μl of p-(S473) AKT rabbit polyclonal antibody (Cell Signaling, USA Cat # 9277S) was added at a dilution of 1:250 in 0.1% (w/v) BSA in TBS, and the plate was incubated at room temperature for 1 hour. Plates were then washed 3 times with cold TBS containing 0.05% (v/v) Tween 20 (TBS-T) and 100 μl of Horseradish peroxidase (HRP)-conjugated goat-anti-rabbit antibody (Amersham, USA Cat # NA934V) at a dilution of 1:250 in TBS-T was added and the plate was incubated at room temperature for 1 h. After washing with ice-cold TBS-T four times, 100 μl of Enhanced Chemiluminescence (ECL) reagent (Amersham, USA Cat# RPN2209) was added to each well and mixed on a mini-orbital shaker for 1 min. The plate was then read on a Perkin Elmer Victor 5 Multilabel Counter (#1420-0421).

In test [2] the target is T1, Flk-1 (murine VEGFR-2) kinase domain (Mus musculus, UniProt P35918).
T1 construct: 7 nM Flk-1 (kinase domain)
T1 sequence (P35918 832-1160 limits assumed): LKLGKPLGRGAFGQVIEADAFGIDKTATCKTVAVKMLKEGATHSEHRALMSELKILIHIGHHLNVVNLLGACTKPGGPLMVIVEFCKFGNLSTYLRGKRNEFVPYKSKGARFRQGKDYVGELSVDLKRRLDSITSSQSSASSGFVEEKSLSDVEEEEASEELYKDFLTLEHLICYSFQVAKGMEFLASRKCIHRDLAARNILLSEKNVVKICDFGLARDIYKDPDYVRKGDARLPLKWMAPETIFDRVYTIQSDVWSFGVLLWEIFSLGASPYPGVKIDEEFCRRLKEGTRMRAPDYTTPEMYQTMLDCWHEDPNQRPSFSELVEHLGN
The experiment in a line: Flk-1 (murine VEGFR-2) Biochemical Assay (TR-FRET). Particulars: 10 μM ATP, 7 nM Flk-1 (kinase domain).

Test [3] has as its system phospho-ERK in MDA-MB-231 cells. Put plainly: Phospho-ERK Cytoblot Assay with MDA-MB 231 cells. Particulars: Homo sapiens, 1 hour compound incubation, phospho-p44/42 MAP kinase (Thr202/Tyr204). Type of test: cell-based. An excerpt:
The utility of the compounds of the present invention can also be illustrated, for example, by their activity in the phosph-ERK Assay described below. Growth-factor induction of the RAS/MEK/ERK signaling pathway leads to the induction of phosphorylation of a number of proteins including phospho-ERK (See C. J. Marshall, MAP kinase kinase kinase, MAP kinase kinase and MAP kinase, Current Opinions in Genetic Development, 1994, 4: p. 82-89). The importance of this pathway in cancer biology has been recognized in the art. Activation of the RAS signaling pathway is an important mechanism by which cancer develops (R. Herrera, et al, Unraveling the complexities of the Raf/MAP kinase pathway for pharmacological intervention, Trends Mol. Med., 2002, 8: p. S27-31). Mutational activation of RAS or downstream effectors as well as growth factor induction of this pathway leads to increased tumor cell proliferation and survival (A. A. Adjei, Blocking oncogenic RAS signaling for cancer therapy, J. Natl. Cancer Inst., 2001, 93(14): p. 1062-1074; J Schlessinger, Cell signaling by receptor tyrosine kinases, Cell, 2000, 103: p. 211-225). Phospho-ERK Cytoblot Assay Protocol with MDA-MB 231 Cells MDA-MB-231 cells in log phase were plated at 25,000 cells/well in 96-well opaque plates (Falcon, USA Cat # 353296) in 100 μL RPMI medium containing 10% (w/v) FBS, and incubated overnight at 37° C. in 5% CO2 incubator. The following day, the growth medium was removed from the plate by aspiration and replaced with RPMI medium containing 0.1% BSA and example compounds diluted to generate final concentrations of 0.0, 0.001, 0.003, 0.01, 0.03, 0.1, 0.3, 1 and 3 μM. Cells were incubated with compound for 1 hour at 37° C. in a 5% CO2 incubator. The media was then removed from the plate by aspiration and the cells were washed once with 180 μL/well cold Tris Buffered Saline (TBS). After removal of the wash buffer, the cells were fixed by adding 180 μL of cold 3.7% (v/v) formaldehyde in TBS to each well for 1 hour at 4° C. After removal of the formaldehyde, the cells were treated with the addition of 60 μL of −20° C. methanol to each well for 5 minutes at 4° C. The methanol was removed and the cells were washed with 180 μL/well of 5% (w/v) BSA in TBS. To block non-specific antibody binding sites, each well was treated with 180 μL/well 5% BSA (w/v) in TBS for thirty minutes at room temperature. After removal of the blocking buffer, 50 μL of an anti-phospho-p44/42 MAP kinase (Thr202/Tyr204) rabbit polyclonal antibody (Cell Signaling, USA Cat # 9101) was added to each well at a dilution of 1:1000 in 5% (w/v) BSA in TBS, and the plate was incubated at 4° C. overnight. Plates were then washed three times with 300 μL/well TBS at room temperature. The plates were then incubated with 50 μL of Horseradish peroxidase (HRP)-conjugated goat-anti-rabbit antibody (Amersham, USA Cat. # NA934V) at a dilution of 1:1000 in 5% BSA-TBS at room temperature for 1 hr. After washing the plate three times with 300 μL/well TBS, 60 μL of Enhanced Chemiluminescence (ECL) reagent (Amersham, USA Cat# RPN2209) was added to each well and incubated at room temperature for five minutes. The plate was then read on a Perkin Elmer Victor 5 Multilabel Counter (#1420-0421). […] The utility of the compounds of the present invention can also be illustrated, for example, by their activity in the flk-1 (murine VEGFR2) Assay described below. The VEGF-VEGFR2 signaling pathway has been extensively characterized as an important regulator of angiogenesis and tumor angiogeneisis (See G. Yancopoulos et al, Vascular-specific growth factors and blood vessel formation, Nature, 2000, 407: p. 242-248; D. Shweiki et al, Induction of vascular endothelial growth factor expression by hypoxia and by glucose deficiency in multi cell spheroids: Implications for tumor angiogenesis, Proc. Natl. Acad. Sci, 1995, 92: p. 768-772). Inhibition of tumor cell growth by blocking this pathway has been well documented in the art. […]

The structures appear in SMILES notation.

What is called IC50 is the concentration that inhibits the measured activity by half. A low value points to greater potency. Regarding `CN(C)CCCCNC(=O)c1cc(CNc2ncsc2C(=O)Nc2ccc3c(c2)OC(F)(F)O3)ccn1` [Example 6, 4-{[(5-{[(2,2-difluoro-1,3-benzodioxol-5-yl)amino]carbonyl}-1,3-thiazol-4-yl)amino]methyl}-N-[4-(dimethylamino)butyl]pyridine-2-carboxamide], the IC50 in test [1] and in test [2] was under 500 nM in each case.
Consider `CNC(=O)c1cc(CNc2ncsc2C(=O)Nc2ccc3c(c2)OC(F)(F)O3)ccn1` [Example 1, 4-{[(5-{[(2,2-difluoro-1,3-benzodioxol-5-yl)amino]carbonyl}-1,3-thiazol-4-yl)amino]methyl}-N-methylpyridine-2-carboxamide], for which the half-maximal inhibitory concentration (IC50) in test [1] was under 500 nM; in test [3] it was under 3000 nM; in test [2], under 500 nM.
For `Nc1cc(CNc2ncsc2C(=O)Nc2ccc3c(c2)OC(F)(F)C(F)(F)O3)ccn1` [Example 16, 4-{[(2-aminopyridin-4-yl)methyl]amino}-N-(2,2,3,3-tetrafluoro-2,3-dihydro-1,4-benzodioxin-6-yl)-1,3-thiazole-5-carboxamide], the IC50 in test [1] and in test [2] was under 500 nM each time.
For `NC(=O)c1cc(CNc2ncsc2C(=O)Nc2ccc3c(c2)OC(F)(F)O3)ccn1` [Example 3, 4-{[(5-{[(2,2-difluoro-1,3-benzodioxol-5-yl)amino]carbonyl}-1,3-thiazol-4-yl)amino]methyl}pyridine-2-carboxamide], the IC50 in test [1] and in test [2] was under 500 nM in each case.
As for `CS(=O)(=O)Nc1cc(CNc2ncsc2C(=O)Nc2ccc3c(c2)OC(F)(F)C(F)(F)O3)ccn1` [Example 12, 4-[({2-[(methylsulfonyl)amino]pyridin-4-yl}methyl)amino]-N-(2,2,3,3-tetrafluoro-2,3-dihydro-1,4-benzodioxin-6-yl)-1,3-thiazole-5-carboxamide], the half-inhibitory concentration (IC50) in test [1] and in test [2] was under 500 nM in each case.
Consider `CNC(=O)c1cc(CNc2ncsc2C(=O)Nc2ccc3c(c2)OC(F)(F)C(F)(F)O3)ccn1` [Example 2, N-methyl-4-{[(5-{[(2,2,3,3-tetrafluoro-2,3-dihydro-1,4-benzodioxin-6-yl)amino]carbonyl}-1,3-thiazol-4-yl)amino]methyl}pyridine-2-carboxamide], for which the 50% inhibitory concentration (IC50) in test [1] was under 500 nM; in test [3], under 3000 nM; in test [2], under 500 nM.
`CNC(=O)Nc1cc(CNc2ncsc2C(=O)Nc2ccc3c(c2)OC(F)(F)O3)ccn1` [Example 18, N-(2,2-difluoro-1,3-benzodioxol-5-yl)-4-{[(2-{[(methylamino)carbonyl]amino}pyridin-4-yl)methyl]amino}-1,3-thiazole-5-carboxamide]: the IC50 in test [1] was under 500 nM; in test [3] it was under 3000 nM; in test [2], under 500 nM.
`O=C(NCCCCN1CCCC1)c1cc(CNc2ncsc2C(=O)Nc2ccc3c(c2)OC(F)(F)O3)ccn1` [Example 5, 4-{[(5-{[(2,2-difluoro-1,3-benzodioxol-5-yl)amino]carbonyl}-1,3-thiazol-4-yl)amino]methyl}-N-(4-pyrrolidin-1-ylbutyl)pyridine-2-carboxamide] yielded an IC50 in test [2] of under 500 nM.
`CC(=O)OCC(=O)Nc1cc(CNc2ncsc2C(=O)Nc2ccc3c(c2)OC(F)(F)O3)ccn1` [Example 13, 2-[(4-{[(5-{[(2,2-difluoro-1,3-benzodioxol-5-yl)amino]carbonyl}-1,3-thiazol-4-yl)amino]methyl}pyridin-2-yl)amino]-2-oxoethyl acetate]: the IC50 is under 500 nM in test [1], under 3000 nM in test [3] and under 500 nM in test [2].
Turning to `CNC(=O)Nc1cc(CNc2ncsc2C(=O)Nc2ccc3c(c2)OC(F)(F)C(F)(F)O3)ccn1` [Example 20, 4-{[(2-{[(methylamino)carbonyl]amino}pyridin-4-yl)methyl]amino}-N-(2,2,3,3-tetrafluoro-2,3-dihydro-1,4-benzodioxin-6-yl)-1,3-thiazole-5-carboxamide], the IC50 in test [1] was under 500 nM; in test [3], under 3000 nM; in test [2] it was under 500 nM.
For the molecule `CC(=O)Nc1cc(CNc2ncsc2C(=O)Nc2ccc3c(c2)OC(F)(F)O3)ccn1` [Example 10, 4-([{2-(acetylamino)pyridin-4-yl]methyl}amino)-N-(2,2-difluoro-1,3-benzodioxol-5-yl)-1,3-thiazole-5-carboxamide], the IC50 in test [1] was under 500 nM; in test [3], under 3000 nM; in test [2] it was under 500 nM.
For `Nc1cc(CNc2ncsc2C(=O)Nc2ccc3c(c2)OC(F)(F)O3)ccn1` [Example 15, 4-{[(2-aminopyridin-4-yl)methyl]amino}-N-(2,2-difluoro-1,3-benzodioxol-5-yl)-1,3-thiazole-5-carboxamide], in test [1], the half-inhibitory concentration (IC50) was under 500 nM.
